Numbers after ± are expanded uncertainties.
Test: mn = molality of the nth substance listed, in mol/kg
Conditions: 298.15 K, 101 kPa, Liquid, Vibrating tube method

Nc1cc[nH]c(=O)n1 [4-amino-2-hydroxypyrimidine] + O
Conditions | mass density [kg/m3]
m1 = 0.02193 | 997.872 ± 0.063
m1 = 0.02698 | 998.062 ± 0.063
m1 = 0.03192 | 998.246 ± 0.063
m1 = 0.03702 | 998.438 ± 0.063
m1 = 0.04187 | 998.618 ± 0.063
m1 = 0.04604 | 998.777 ± 0.063
m1 = 0.05099 | 998.96 ± 0.063
m1 = 0.05598 | 999.144 ± 0.063
m1 = 0.06284 | 999.402 ± 0.063
